In PMC11984871, “Perillaldehyde Improves Parkinson‐Like Deficits by Targeting G3BP Mediated Stress Granule Assembly in Preclinical Models” (Advanced Science, 2025):
pKd: −log10 of the molar value.

Target: T1, G3BP1 (Homo sapiens, UniProt Q13283)
T1 construct: full-length, EGFP-tagged (mEGFP), recombinant in E. coli BL21(DE3) from pET-28a, size-exclusion purified; immobilized on CM5 chip
Assay: SPR (Biacore 8K, CM5 chip, immobilized EGFP-G3BP1, […] Langmuir fit)
Type: binding

T1 sequence (Q13283 2-466): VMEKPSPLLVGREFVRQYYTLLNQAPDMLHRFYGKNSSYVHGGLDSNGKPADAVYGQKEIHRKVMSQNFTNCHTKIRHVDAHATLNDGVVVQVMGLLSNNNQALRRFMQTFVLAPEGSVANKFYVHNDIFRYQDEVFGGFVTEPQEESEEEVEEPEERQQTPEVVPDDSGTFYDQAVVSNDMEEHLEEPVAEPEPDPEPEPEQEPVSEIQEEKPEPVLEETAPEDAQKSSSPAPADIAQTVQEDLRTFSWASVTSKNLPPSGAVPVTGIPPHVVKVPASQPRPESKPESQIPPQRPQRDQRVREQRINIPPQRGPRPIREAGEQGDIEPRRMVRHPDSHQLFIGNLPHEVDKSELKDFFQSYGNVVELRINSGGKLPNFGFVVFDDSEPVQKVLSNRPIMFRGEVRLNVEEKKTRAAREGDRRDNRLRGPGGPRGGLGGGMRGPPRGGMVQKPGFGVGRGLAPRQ

SMILES	pKd
CC(=NNC(=O)c1ccccc1O)c1ccccc1O [C108]	5.57
C=C(C)[C@@H]1CC=C(C=O)CC1 [perillaldehyde]	5.26
